Results taken from publication PMC9120478 (Nature Communications, 2022).
Changes are numbered by the printed parent chain.

Columns and labels:
[1] = biological target: T1, TRPV3-F633A (Mus musculus, UniProt Q8K424, F633A); assay: Fura-2 ratiometric Ca2+ uptake, inhibition of 2-APB-evoked response; type: cell-based
T1 construct: expressed in transfected cells; host or cells: HEK 293 S GnTI- cells (baculovirus transduction)
T1 sequence (Q8K424 1-791 F633A): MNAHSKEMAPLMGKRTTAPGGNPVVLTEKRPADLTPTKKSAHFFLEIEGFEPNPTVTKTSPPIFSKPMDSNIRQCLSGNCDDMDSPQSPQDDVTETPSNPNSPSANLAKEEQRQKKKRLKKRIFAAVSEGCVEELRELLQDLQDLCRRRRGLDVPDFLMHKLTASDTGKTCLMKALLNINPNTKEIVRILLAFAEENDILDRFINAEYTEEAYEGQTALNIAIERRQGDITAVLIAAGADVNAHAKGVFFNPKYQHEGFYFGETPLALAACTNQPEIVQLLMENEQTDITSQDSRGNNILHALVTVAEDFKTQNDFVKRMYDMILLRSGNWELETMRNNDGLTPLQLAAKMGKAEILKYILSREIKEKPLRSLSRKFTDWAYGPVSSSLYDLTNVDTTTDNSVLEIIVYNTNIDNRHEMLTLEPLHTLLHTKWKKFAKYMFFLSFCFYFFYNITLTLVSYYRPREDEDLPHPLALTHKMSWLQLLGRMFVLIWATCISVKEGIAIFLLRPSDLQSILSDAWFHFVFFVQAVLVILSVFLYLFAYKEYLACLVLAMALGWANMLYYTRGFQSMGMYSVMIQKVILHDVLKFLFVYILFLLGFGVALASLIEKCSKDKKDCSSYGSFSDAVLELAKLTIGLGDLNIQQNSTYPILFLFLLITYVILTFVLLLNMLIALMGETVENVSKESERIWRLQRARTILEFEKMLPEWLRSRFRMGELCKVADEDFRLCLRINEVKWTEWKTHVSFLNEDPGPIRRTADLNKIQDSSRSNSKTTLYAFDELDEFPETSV
Excerpt: (§1) The portal site in TRPV3 has not been previously shown to bind small-molecule inhibitors. This site, however, was originally proposed to be an entry pathway for local anesthetics to the pore of sodium channels[47]–[49] and found to accommodate cannabidiol in TRPV2, a closely-related representative of the vanilloid subfamily of TRP channels. […] We concluded that the Y594A mutation altered gating properties of TRPV3 and excluded this mutant from further analysis.
(§2) GFP-free C-terminally strep-tagged wild-type TRPV3, TRPV3-Y564A, TRPV3-Y594A, TRPV3-F633A, TRPV3-I663W, and TRPV3-F666A were expressed in HEK 293 S GnTI^− cells as previously described[41],[42],[53]. In short, 48 h after transduction, 1-ml aliquots of cell suspension were collected by centrifugation at 550 g for 5 min using an Eppendorf 5424 centrifuge. The cells were resuspended in the pre-warmed modified HEPES-buffered saline (HBS) containing 118 mM NaCl, 4.8 mM KCl, 1 mM MgCl2, 5 mM D-glucose, and 10 mM HEPES pH 7.4 and 5 μg/ml Fura-2 AM (Thermo Fisher Scientific) and incubated for 45 min at 37 °C. The Fura-2-loaded cells were then centrifuged for 5 min at 550 g, resuspended in the pre-warmed, modified HBS and incubated again for 30 min at 37 °C in the dark. The cells were subsequently pelleted and washed twice in the modified HBS. The washed cell pellets were kept on ice in the dark before taking an aliquot for fluorescence measurements. […] We used the lower CaCl2 concentration than before[42],[28] (2.5 mM) to minimize non-specific effects, which often appeared as a drift in the Fura-2 signal at high Ca^2+ concentration, presumably due to cell death as a result of calcium overload. Fluorescence measurements were conducted using a QuantaMaster 40 spectrofluorometer (Photon Technology International) at room temperature in a quartz cuvette under constant stirring. After 60 s since the beginning, the recording was paused and 2-APB was added. After the addition of 2-APB, the recording was continued for the additional 140 s. Changes in intracellular Ca^2+ were measured by taking the ratio of fluorescence emitted at 510 nm at the excitation wavelength of 340 nm and 380 nm. […] The data were processed using Origin 9.0 (OriginLab) software.

[2] = biological target: T2, TRPV3-I663W (Mus musculus, UniProt Q8K424, I663W); assay: as above; type: cell-based; conditions: n = 3
T2 construct: expressed in transfected cells; host or cells: HEK 293 S GnTI- cells (baculovirus transduction)
T2 sequence (Q8K424 1-791 I663W): T1 sequence (Q8K424 1-791 F633A) with A633F, I663W
Excerpt: as §1, §2

[3] = test system: TRPV3; conditions: cited from earlier work
[4] = test system: TRPV3 I674A gate residue mutant; conditions: cited from earlier work

CCCCOc1ccc(C(=O)CCN2CCCCC2)cc1 [dyclonine, 1-(4-butoxyphenyl)-3-piperidin-1-ylpropan-1-one]
IC50 of F633A compared to wild-type channels [1]: three times smaller | IC50 ([1]; 200 µM 2-APB, n = 6, read-out: IC50, inhibition of F633A mutant): 9.8 ± 0.7 µM | nHill of inhibition curve, F633A ([1]; logistic fit, n = 6): 1.68 ± 0.19 | IC50 ([2]; 200 µM 2-APB, read-out: IC50, inhibition of I663W mutant): 31.5 ± 1.6 µM | nHill of inhibition curve, I663W ([2]; logistic fit): 1.63 ± 0.07 | temperature-dependence of inhibition ([3]; TRPV3 activation by an infrared laser): lack of temperature-dependence | effect on TRPV3 currents evoked by heat [3]: inhibits | voltage-dependence of TRPV3 inhibition [3]: no voltage-dependence | inhibitory potency at I674A mutant [4]: reduced inhibitory potency
